Reference: patent publication US20220151993A1, “TREATMENT OF ANXIETY AND DEPRESSION” (NEW YORK UNIVERSITY, priority 2020, published 2022)

Columns and labels:
[1] = system: patients with cancer-related psychiatric and existential distress; test: Functional Assessment of Chronic Illness Therapy-Spiritual Well-Being (FACIT-Sp-12), long-term follow-up; assay type: in vivo, human; details: for Faith / Meaning/peace / Spiritual well-being: single 0.3 mg/kg dose with psychotherapy; for Faith: baseline 6.75; for Meaning/peace: baseline 19.43; for Spiritual well-being: baseline 55.69
Protocol: (§1) The present example assesses the long-term effects of a single dose of psilocybin (0.3 mg/kg) in conjunction with psychotherapy in patients with cancer-related psychiatric and existential distress.
(§2) 29 participants were randomly assigned to one of two groups: psilocybin (0.3 mg/kg) on the first medication session followed by niacin (250 mg) on the second session (i.e. psilocybin-first group), or niacin (250 mg) on the first medication session followed by psilocybin (0.3 mg/kg) on the second session (i.e. niacin-first group). Psilocybin and niacin were administered in identically appearing gelatin capsules.
(§3) Participants received three 2-hour preparatory psychotherapy sessions in order to review the purpose and intention of participation in the study, treatment goals, and structure of the treatment sessions. Medications were administered in 8-hour treatment sessions which included a discussion of the participant's subjective experience with the treatment team to consolidate the memory of the experience and to begin the process of post-integrative psychotherapy. Participants also received three 2-hour post-medication integration sessions (repeated after the second dosing session) to further consolidate the memory of the experience and to continue the process of psychological integration. All psychotherapy treatment sessions were delivered by a dyadic therapy team trained in a blend of psychotherapies with an evidence base to support their use in cancer patients (drawing upon principles of palliative care therapy, existential psychotherapy, cognitive-behavioural therapy, psychoanalysis therapy, and transpersonal psychology) and were taught about the safety and clinical pharmacology of psilocybin. Each therapy dyad underwent six confidential one-to-one sessions to build their alliance and exchange ideas about psychedelic therapy. The trial employed a crossover design at seven weeks following the first drug administration, with an outcome assessment at 6.5 months (26 weeks) following the second drug administration (i.e. after the crossover).
(§4) Two long-term follow ups (LTFUs) were carried out to assess the continued effect of psilocybin. Of the original 29 participants, all 16 participants who were not deceased at the time of LTFU were contacted (the remaining 13 participants were deceased). Of the 16 participants who were contacted, 15 agreed to participate in the LTFU and completed measures through a secure online portal. One participant died (from cancer-related complications) after completing the first LTFU and prior to the second LTFU, leaving us with 14 participants at the second LTFU. The first and second LTFUs occurred on average 3.2 years (range 2.3-4.5 years) and 4.5 years (range 3.5-5.5 years) following the participants' psilocybin dosing date, respectively.
Spirituality was assessed using the Functional Assessment of Chronic Illness Therapy-Spiritual Well-Being (FACIT-Sp-12; Bredle et al., 2011). This is a 12-item measure of spiritual well-being among individuals with cancer and other forms of chronic illness. Items are rated on a five-point Likert scale. The measure yields three subscales: a sense of meaning/peace in life, a sense of comfort from one's faith, and total spiritual well-being score. Total scores for each subscale range from 0-32, 0-16, and 0-48, respectively. Data have not been published regarding recommended cutoff scores for this measure. This measure has shown good reliability (Cronbach's a ranging from 0.81-0.88) and has been well validated (Bredle et al. 2011).
Regarding all analyses for both the primary and secondary outcome assessments, both the psilocybin-first and niacin-first dose sequence groups were collapsed and combined into one group. Reasons for this decision included the crossover design, which prevented valid between-group comparisons subsequent to the crossover, and a need to increase power given the modest sample size. […]

[2] = system: patients with cancer-related psychiatric and existential distress; test: Secondary questionnaire domains (social relationships, environmental, physical, psychological health), long-term follow-up; assay type: in vivo, human; details: single 0.3 mg/kg dose with psychotherapy; for Psychological health: baseline 13.58; for Social relationships: baseline 13.91; for Physical health: baseline 15.00; for Environmental health: baseline 15.50
Protocol: as §1, §2, §3, §4
Regarding all analyses for both the primary and secondary outcome assessments, both the psilocybin-first and niacin-first dose sequence groups were collapsed and combined into one group. Reasons for this decision included the crossover design, which prevented valid between-group comparisons subsequent to the crossover, and a need to increase power given the modest sample size.
The long-terms effects of psilocybin on variables of interest were evaluated using four repeated measures regressions, estimated within the mixed effect repeated measurement (MMRM) model. Planned within-subject t-tests (Tukey's post-hoc) were conducted comparing scores at baseline to the following time points for primary and secondary outcomes: 6.5 months after the second medication session, and the first and second LTFU points. Planned within subject t-tests were also conducted comparing scores at parent study endpoint (6.5 months) to the two LTFU points.

[3] = system: patients with cancer-related psychiatric and existential distress; test: Primary outcome measures (anxiety and depression) combined: effect sizes, clinical response and remission rates; assay type: in vivo, human
Protocol: as §1, §2, §3, §4
Primary outcomes (anxiety and depression) were measured according to the following methods: • Hospital Anxiety and Depression Scale (HADS) (Zigmond and Snaith, 1983)—this is widely used in hospital settings to screen for the severity of anxiety and depression. It contains 14 questions rated on a four-point scale (total score (HAD-T) ranges from […]). Subscale scores can be calculated for depression (HADS-D) and anxiety (HADS-A). […] The HADS has shown good reliability (Cronbach's a ranging from 0.80-0.93) and has been well validated (Herrmann, 1997). • Beck Depression Inventory-II (BDI-II) (Beck et al., 1988)—a widely used self-report screening measure for depression. The BDI-II consists of 21 questions about depressive symptoms experienced over the past two weeks rated on a […] scale (total score ranges from 0-63). Scores above 12 indicate possible clinical depression. This measure has shown good reliability (internal consistency of 0.90) and factorial validity (Storch et al. 2004). • Spielberger State-Trait Anxiety Inventory (STAI) (Spielberger, 1983)—a well-known measure of anxiety consisting of scales for state (STAI-S) and trait-level anxiety (STAI-T). […]

[4] = system: patients with advanced-stage cancer; details: single moderate dose 0.2 mg/kg; cited from earlier work
[5] = mean score at 3.2 years, p < 0.05 vs baseline
[6] = mean score at 4.5 years, p < 0.05 vs baseline
[7] = mean score at 6.5-8 months, p < 0.001 vs baseline
[8] = mean score at 6.5-8 months, p < 0.05 vs baseline
[9] = second LTFU point (mean 4.5 years)

SMILES: CN(C)CCc1c[nH]c2cccc(OP(=O)(O)O)c12 [psilocybin, [3-(2-dimethylaminoethyl)-1H-indol-4-yl] dihydrogen phosphate]
- Faith [1, 5]: 9.31
- Meaning/peace ([1]; mean score at 3.2 years): 19.27
- Spiritual well-being ([1]; mean score at 3.2 years): 59.85
- Faith ([1]; mean score at 4.5 years, p < 0.01 vs baseline): 10.43
- Meaning/peace ([1]; mean score at 4.5 years): 20.20
- Spiritual well-being [1, 6]: 65.04
- Faith ([1]; mean score at 6.5-8 months, p < 0.01 vs baseline): 9.77
- Meaning/peace [1, 7]: 26.34
- Spiritual well-being [1, 7]: 70.58
- spiritual well-being and faith domains (FACIT-Sp-12) relative to baseline ([1]; second LTFU): significant improvements
- Psychological health ([2]; mean score at 3.2 years, p < 0.01 vs baseline): 15.48
- Social relationships ([2]; mean score at 3.2 years): 15.54
- Physical health ([2]; mean score at 3.2 years): 16.33
- Environmental health [2, 5]: 16.72
- Psychological health ([2]; mean score at 4.5 years): 14.80
- Social relationships ([2]; mean score at 4.5 years): 14.67
- Physical health ([2]; mean score at 4.5 years): 13.89
- Environmental health [2, 6]: 17.00
- Psychological health [2, 7]: 15.70
- Social relationships ([2]; mean score at 6.5-8 months): 15.27
- Physical health [2, 8]: 16.35
- Environmental health [2, 8]: 16.54
- participants meeting criteria for clinical antidepressant or anxiolytic response and remission ([3]; 4.5 year time point): 60-80%
- mean Cohen's d, reductions in symptoms since baseline on primary measures (anxiety and depression) ([3]; 6.5-month point): 1.90
- range of Cohen's d, primary measures (anxiety and depression) ([3]; 6.5-month point): 1.27-2.67
- participants meeting criteria for clinical antidepressant or anxiolytic response and remission ([3]; 6.5 months after psilocybin administration): 60-80%
- mean Cohen's d, reductions in symptoms since baseline on primary measures (anxiety and depression) ([3]; first LTFU (mean 3.2 years)): 1.30
- range of Cohen's d, primary measures (anxiety and depression) ([3]; first LTFU (mean 3.2 years)): 0.93-1.97
- depression symptom remission rates ([3]; second LTFU (4.5 years, n=14), 50% or greater reduction plus HADS-D≤7 or BDI≤12): 50-79%
- percentages of clinical responses for depression on the HADS-D and BDI ([3]; second LTFU (4.5 years, n=14), 50% or greater reduction relative to baseline): 57-79%
- mean Cohen's d, reductions in symptoms since baseline on primary measures (anxiety and depression) [3, 9]: 1.41
- range of Cohen's d, primary measures (anxiety and depression) [3, 9]: 0.86-1.89
- adverse events [4]: no clinically significant adverse events
- time after treatment up to which levels of anxiety were reduced [4]: up to 3 months
- time after treatment up to which levels of depression were reduced [4]: up to 6 months
